Like-named read-outs stand apart in the source and are kept apart here. Blank lines part the entries; values can stand above or below the compound they belong to.
Columns and labels:
[1] = test system: HCT116 human colon tumor cells; assay: Growth assay (Cell Titer Glo), HCT116; type: cell-based; details: for HCT116 colon tumor cell growth, single agents and combination (in words): FIG. 12A
Description: (§1) All cell lines comprising the NCI-60 cancer cell panel were obtained from the NCI Developmental Therapeutics Program and maintained under the same standard conditions. The human normal colonocyte (NCM460) cell line was purchased from Incell (San Antonio, Tex.) and grown according to the manufacturer's specifications. The human colon adenoma cell line, LT97, was a gift from Dr. Brigitte Marian (Medical University Vienna, Austria) and grown according to the provider's specifications. Human mammary epithelial cells (HMEC) were purchased from Lonzo and grown using culture conditions as recommended by the supplier.
(§2) Ninety-six (96)-well microtiter plates were seeded at a density of 5,000 cells per well. For drug treatment, cells were treated with compounds or vehicle control, and incubated at 37° C. for 72 hours. For siRNA assays, cells were transfected with siRNA under the same conditions described above. The effect of treatment with inhibitors or siRNA knockdown of PDE10A on growth was measured using the Cell Titer Glo Assay (Promega), which measures viable cell number based on ATP content.
(§3) Effect of various PDE isozyme inhibitors on the growth of human colon tumor cells HCT116 and HT29 was determined using the Cell Titer Glo Cell Viability Assay (Promega) following 72 hours of treatment.
(§4) The effect of the inhibitors on the growth of human colon tumor and normal colonocytes was measured using the Cell Titer Glo Cell Viability Assay (Promega) as described above. The inhibitory potency toward purified recombinant phosphodiesterase enzymes was measured using the IMAP Phosphodiesterase Assay as described in the Materials and Methods section.

[2] = test system: HT29 human colon tumor cells; assay: Growth assay (Cell Titer Glo), HT29; type: cell-based
Description: as §1, §2, §3, §4

[3] = test system: normal colonocytes (NCM460); assay: Growth assay (Cell Titer Glo), normal colonocytes NCM460; type: cell-based, human; details: for IC50: Homo sapiens, NCM460
Description: as §1, §2, §4

[4] = test system: SW480 human colon tumor cells; assay: Growth assay (Cell Titer Glo), SW480; type: cell-based; details: PDE10 Inhibitors table, read-out: Growth Inhibition IC50, SW-480
Description: as §1, §2, §4

human colon tumor cells = assay: Colon tumor cell growth (Cell Titer Glo), cell line not specified; type: cell-based; details: 72 hours of treatment
Experimental: as §2, §3

[5] = test system: NCI-60 cancer cell line panel; assay: Growth inhibition in NCI-60 cancer cell line panel; type: cell-based, human; details: FIG. 13
Experimental: Tumor growth inhibitory activity was measured using a cell viability assay following 72 hours of treatment. Potency values (GI50) as measured in each tumor cell line are shown on the y axis.
The human colon tumor cell lines, HCT116, HT29, SW480, SW620, colo741, Caco-2, DLD-1, LS174T, and RKO and human breast tumor cell lines, MCF7, T47D, ZR75, MDA-MB-231, HS578T, and MDA-MB-468 were purchased from ATCC and grown under standard cell culture conditions in RPMI 1640 medium containing 5% fetal bovine serum (FBS) at 37° C. in a humidified atmosphere with 5% CO2. All cell lines comprising the NCI-60 cancer cell panel were obtained from the NCI Developmental Therapeutics Program and maintained under the same standard conditions. The human normal colonocyte (NCM460) cell line was purchased from Incell (San Antonio, Tex.) and grown according to the manufacturer's specifications. The human colon adenoma cell line, LT97, was a gift from Dr. Brigitte Marian (Medical University Vienna, Austria) and grown according to the provider's specifications. […]
Ninety-six (96)-well microtiter plates were seeded at a density of 5,000 cells per well. […] The effect of treatment with inhibitors or siRNA knockdown of PDE10A on growth was measured using the Cell Titer Glo Assay (Promega), which measures viable cell number based on ATP content. […]

PDE5A = target: T1, PDE5A (Homo sapiens, UniProt O76074); assay: IMAP fluorescence polarization PDE assay, PDE5A; type: biochemical; details: substrate cGMP; read-out: Phosphodiesterase Inhibition PDE5A (PDE5) cGMP IC50
T1 construct: purchased BPS Biosciences
Experimental: (§5) MY5445 was purchased from EMD Millipore. […] Recombinant PDE enzymes were purchased from BPS Biosciences. DMSO was used as the vehicle for testing effects of all compounds.
(§6) PDE enzymatic activity was measured using IMAP fluorescence polarization assay (Molecular Devices. Inc.). […] For experiments involving cell extracts, 2×10^5 cells per well were plated on a six-well tissue culture plate 72 hours prior to cell lysis.
as §4

PDE7A1 = PDE7A1 (Homo sapiens, UniProt Q13946); details: @ 3 μM; cited from earlier work
PDE7A1, sequence (Q13946 whole entry, species assumed): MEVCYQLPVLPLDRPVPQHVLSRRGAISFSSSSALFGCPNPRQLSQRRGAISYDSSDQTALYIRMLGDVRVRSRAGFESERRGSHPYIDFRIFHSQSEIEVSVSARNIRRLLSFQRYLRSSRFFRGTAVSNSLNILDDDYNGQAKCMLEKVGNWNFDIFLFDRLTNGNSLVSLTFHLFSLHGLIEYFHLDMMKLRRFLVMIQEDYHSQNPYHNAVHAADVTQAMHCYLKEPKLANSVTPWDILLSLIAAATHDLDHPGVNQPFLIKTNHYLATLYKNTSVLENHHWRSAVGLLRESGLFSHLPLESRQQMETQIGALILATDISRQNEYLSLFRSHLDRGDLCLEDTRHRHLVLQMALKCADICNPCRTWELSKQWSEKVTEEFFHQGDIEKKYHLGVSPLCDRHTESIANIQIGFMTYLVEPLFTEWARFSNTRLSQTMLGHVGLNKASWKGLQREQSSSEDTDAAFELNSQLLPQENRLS

PDE3A = target: T2, PDE3A (Homo sapiens, UniProt Q14432); details: reported; substrate column not distinguished; read-out: Phosphodiesterase Inhibition PDE3A IC50 (reported); cited from earlier work
T2 construct: purchased BPS Biosciences
T2 sequence (Q14432 whole entry): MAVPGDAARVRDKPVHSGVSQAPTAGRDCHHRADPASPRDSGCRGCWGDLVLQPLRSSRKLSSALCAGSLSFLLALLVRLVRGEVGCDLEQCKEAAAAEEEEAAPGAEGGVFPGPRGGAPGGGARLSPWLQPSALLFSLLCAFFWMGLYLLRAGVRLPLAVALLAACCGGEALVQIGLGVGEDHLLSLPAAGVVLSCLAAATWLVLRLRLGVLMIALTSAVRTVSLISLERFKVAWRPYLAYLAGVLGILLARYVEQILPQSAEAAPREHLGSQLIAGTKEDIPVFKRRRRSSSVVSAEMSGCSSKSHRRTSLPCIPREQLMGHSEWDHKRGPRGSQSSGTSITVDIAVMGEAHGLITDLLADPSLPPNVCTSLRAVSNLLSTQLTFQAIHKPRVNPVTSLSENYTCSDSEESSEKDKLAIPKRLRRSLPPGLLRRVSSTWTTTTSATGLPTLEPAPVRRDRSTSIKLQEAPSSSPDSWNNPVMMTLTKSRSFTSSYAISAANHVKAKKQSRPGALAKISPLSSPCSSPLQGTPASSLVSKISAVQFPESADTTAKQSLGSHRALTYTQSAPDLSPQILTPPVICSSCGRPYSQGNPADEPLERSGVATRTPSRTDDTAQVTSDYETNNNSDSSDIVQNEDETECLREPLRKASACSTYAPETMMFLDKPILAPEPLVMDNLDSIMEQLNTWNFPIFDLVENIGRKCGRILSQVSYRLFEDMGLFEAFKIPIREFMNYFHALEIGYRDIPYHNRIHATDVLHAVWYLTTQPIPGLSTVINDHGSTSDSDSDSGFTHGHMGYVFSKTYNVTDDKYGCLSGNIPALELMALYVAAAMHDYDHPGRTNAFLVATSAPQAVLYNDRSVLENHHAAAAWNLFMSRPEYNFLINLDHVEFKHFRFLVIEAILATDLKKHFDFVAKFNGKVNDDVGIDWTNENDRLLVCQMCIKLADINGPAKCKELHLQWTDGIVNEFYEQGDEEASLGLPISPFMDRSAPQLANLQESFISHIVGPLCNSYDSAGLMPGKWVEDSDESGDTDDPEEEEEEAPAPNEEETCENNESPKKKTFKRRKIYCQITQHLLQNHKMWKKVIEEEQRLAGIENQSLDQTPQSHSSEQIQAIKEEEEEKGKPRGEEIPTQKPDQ

PDE10A [6] = details: reported; substrate column not distinguished; read-out: Phosphodiesterase Inhibition PDE10A IC50 (reported); cited from earlier work
other PDE isozymes = details: reported, read-out: Phosphodiesterase Inhibition, Others, IC50 (reported); cited from earlier work
[7] = test system: patients with metastatic disease; details: Lundholm et al. 1994; cited from earlier work
β-catenin and survivin = assay: Western blotting of β-catenin and survivin levels in HCT116; type: cell-based, human; details: FIG. 12B
Experimental: Western blot analysis was performed as described previously (Tinsley, et al., supra). The following antibodies were used to detect specific proteins: PDE2 (GeneTex, 1:1000), PDE3 (Abcam, 1:1000), PDE5 (Cell Signaling, 1:1000), PDE10 (GeneTex, 1:1000), survivin (Cell Signaling, 1:1000), GAPDH (Cell Signaling, 1:5000).

PDE10A [8] = target: T3, PDE10A (Homo sapiens, UniProt Q9Y233); assay: IMAP fluorescence polarization PDE assay, PDE10A; type: biochemical; details: recombinant enzyme
T3 construct: other: substrate cGMP; recombinant enzyme; other: substrate cAMP
T3 sequence (Q9Y233 290-1055 limits assumed): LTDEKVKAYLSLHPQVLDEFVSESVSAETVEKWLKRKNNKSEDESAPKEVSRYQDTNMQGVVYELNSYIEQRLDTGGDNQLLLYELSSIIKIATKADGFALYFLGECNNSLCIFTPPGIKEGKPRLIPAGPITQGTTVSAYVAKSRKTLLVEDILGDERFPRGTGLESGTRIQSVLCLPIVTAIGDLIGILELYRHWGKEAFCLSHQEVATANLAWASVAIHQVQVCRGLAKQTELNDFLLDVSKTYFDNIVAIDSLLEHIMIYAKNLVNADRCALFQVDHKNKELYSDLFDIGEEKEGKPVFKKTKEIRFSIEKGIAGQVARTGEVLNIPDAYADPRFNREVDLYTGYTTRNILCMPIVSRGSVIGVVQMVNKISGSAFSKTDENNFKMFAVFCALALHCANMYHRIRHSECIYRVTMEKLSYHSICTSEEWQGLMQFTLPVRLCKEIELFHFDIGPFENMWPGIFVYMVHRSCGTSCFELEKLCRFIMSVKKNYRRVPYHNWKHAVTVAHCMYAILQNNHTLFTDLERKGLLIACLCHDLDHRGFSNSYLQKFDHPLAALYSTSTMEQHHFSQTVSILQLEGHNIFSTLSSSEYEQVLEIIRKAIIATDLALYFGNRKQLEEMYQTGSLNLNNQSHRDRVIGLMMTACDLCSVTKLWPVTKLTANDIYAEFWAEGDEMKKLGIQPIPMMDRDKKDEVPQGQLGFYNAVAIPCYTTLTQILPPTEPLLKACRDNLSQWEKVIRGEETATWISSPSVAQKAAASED
Experimental: as §5, §6, §4

[9] = test system: cGMP PDE activity in lysates from HCT116 cells; assay: cGMP PDE activity in HCT116 cell lysates (IMAP); type: biochemical, human; details: FIG. 11B
Experimental: Cell growth was measured by the Cell Titer Glo cell viability assay (Promega) following 72 hours of treatment, while cGMP PDE activity was measuring using the IMAP fluorescence polarization PDE assay (Molecular Devises).
as §6

[10] = 72 hours of treatment, PDE isozyme inhibitor table
[11] = PDE10 Inhibitors table, read-out: Growth Inhibition IC50, NCM-460
[12] = Homo sapiens, HCT-116, PDE10 Inhibitors table, read-out: Growth Inhibition IC50, HCT-116
[13] = Homo sapiens, HT-29, PDE10 Inhibitors table, read-out: Growth Inhibition IC50, HT-29

Growth Inhibition (IC50/μM) HCT116 [1, 10]: Inactive
Growth Inhibition (IC50/μM) HT29 [2, 10]: Inactive
Compound: O=C1CCc2cc(OCCCCc3nnnn3C3CCCCC3)ccc2N1 [Cilostazol, cilostazol]

IC50 [4]: 3.7 µM
IC50 [1, 12]: 8.4 µM
IC50 [2, 13]: 0.95 µM
IC50 (PDE5A): > 50 µM
Compound: Cn1cc(-c2ccncc2)c(-c2ccc(OCc3ccc4ccccc4n3)cc2)n1 [PF-2545920, 2-[4-(1-methyl-4-pyridin-4-yl-1H-pyrazol-3-yl)-phenoxymethyl]-quinoline]
growth inhibition in normal colonocytes (in words) ([3]; 72 hours of treatment, FIG. 11D): appreciably less effective
IC50 [3, 11]: 18.8 µM
colon tumor cell growth inhibition (in words) (human colon tumor cells): potently inhibited
tumor cell growth inhibitory activity in the NCI-60 cancer cell line panel (in words) [5]: broad range of tumor cell growth inhibitory activity
GI50 ([5]; Homo sapiens, 72 hours of treatment, average over panel, read-out: average GI50 value in NCI60 cancer cell line panel): 17.7 µM

IC50 ([1]; Homo sapiens, HCT-116, 72 hours of treatment, PDE isozyme inhibitor table, read-out: Growth Inhibition (IC50/μM) HCT116): 38 µM
Compound: CN1CC(=O)N2[C@H](c3ccc4c(c3)OCO4)c3[nH]c4ccccc4c3C[C@@H]2C1=O [Tadalafil, tadalafil]

Growth Inhibition (IC50/μM) HCT116 [1, 10]: Inactive
Growth Inhibition (IC50/μM) HT29 [2, 10]: Inactive
Compound: COc1ccc(C2CNC(=O)C2)cc1OC1CCCC1 (centres unmarked) [Rolipram, rolipram]

Growth Inhibition (IC50/μM) HCT116 [1, 10]: Inactive
Growth Inhibition (IC50/μM) HT29 [2, 10]: Inactive
Compound: CCCCCC[C@@H]([C@@H](C)O)n1cnc2c(N)ncnc21 (racemic) [EHNA]

The next lines start with the compound.

Compound: COc1cc2c(cc1OC)-c1c(-c3cccnc3)ncn1CC2 [Compound no. 7, 8,9-dimethoxy-1-(pyridin-3-yl)-5,6-dihydroimidazo[5,1-a]isoquinoline]
Phosphodiesterase Inhibition PDE7A1 (reported) (PDE7A1): 45%
IC50 (PDE3A): 0.449 µM
IC50 [4]: > 50 µM
IC50 [1, 12]: > 50 µM
IC50 (PDE10A [6]): 0.029 µM
IC50 (other PDE isozymes): > 4 µM
IC50 [2, 13]: > 50 µM

Compound: COCc1nc2c([nH]1)c(=O)n(C)c(=O)n2CC(C)C [8-MeoM-IBMX]
Growth Inhibition (IC50/μM) HCT116 [1, 10]: Inactive
Growth Inhibition (IC50/μM) HT29 [2, 10]: Inactive

Compound: COc1ccc2c(c1)c(CC(=O)O)c(C)n2C(=O)c1ccc(Cl)cc1 [indomethacin]
extension of survival [7]: approximately 9 months

Compound: COc1cc(/C=N/NC(=O)C(OC)c2ccc(-n3cccn3)cc2)cc(OC)c1Br (centres unmarked) [Compound no. 4, (E)-2-{4-(1H-pyrazol-1-yl)phenyl}-N′-(4-bromo-3,5-dimethoxybenzylidene)-2-methoxyacetohydrazide]
IC50 ([1]; Homo sapiens, HCT-116, read-out: Growth Inhibition IC50, HCT-116): 3.13 µM

Compound: Clc1cccc(Nc2nnc(-c3ccccc3)c3ccccc23)c1 [MY5445]
IC50 ([1]; 72 hours of treatment, PDE isozyme inhibitor table, read-out: Growth Inhibition (IC50/μM) HCT116): 18 µM
HCT116 colon tumor cell growth, single agents and combination (in words) [1]: suppressed
β-catenin and survivin levels in HCT116 colon tumor cells (in words) (β-catenin and survivin): reduced
IC50 ([2]; 72 hours of treatment, PDE isozyme inhibitor table, read-out: Growth Inhibition (IC50/μM) HT29): 11 µM

Compound: Cc1nc2c3cc(Br)ccc3nc(SCC#N)n2n1 [Compound no. 5, 2-{(9-bromo-2-methyl-[1,2,4]triazolo[1,5-c]quinazolin-5-yl)thio}acetonitrile]
IC50 [1, 12]: 9.93 µM
IC50 (PDE10A [8]; substrate cAMP, read-out: Phosphodiesterase Inhibition PDE10A cAMP IC50): 0.00866 µM
IC50 (PDE10A [8]; substrate cGMP, read-out: Phosphodiesterase Inhibition PDE10A cGMP IC50): 0.0089 µM

Compound: COc1ccc(Cc2nccc3cc(OC)c(OC)cc23)cc1OC [Papaverine, papaverine]
IC50 ([3]; 72 hours of treatment, FIG. 11, read-out: IC50, growth of normal colonocytes (NCM460)): 118 µM
IC50 [3, 11]: > 100 µM
normal colonocytes (NCM460) less sensitive than colon tumor cell lines ([3]; NCM460 vs HCT116 and HT29): approximately 11 fold
IC50 [4]: 11.2 µM
cGMP hydrolysis in lysates from HCT116 cells (in words) [9]: inhibited
HCT116 colon tumor cell growth, single agents and combination (in words) [1]: suppressed
IC50 ([1]; Homo sapiens, HCT-116, 72 h, read-out: Growth Inhibition (IC50/μM) HCT116): 9 µM
IC50 ([1]; Homo sapiens, HCT-116, 72 hours of treatment, FIG. 11, read-out: IC50, growth of HCT116 colon tumor cells): 9 µM
IC50 [1, 12]: 6.7 µM
β-catenin and survivin levels in HCT116 colon tumor cells (in words) (β-catenin and survivin): reduced
IC50 ([2]; Homo sapiens, HT-29, 72 h, read-out: Growth Inhibition (IC50/μM) HT29): 13 µM
IC50 ([2]; Homo sapiens, HT-29, 72 hours of treatment, FIG. 11, read-out: IC50, growth of HT29 colon tumor cells): 13 µM
IC50 [2, 13]: 24.5 µM

Source: patent publication US10039764B2, “Treatment and diagnosis of cancer and precancerous conditions using PDE10A inhibitors and methods to measure PDE10A expression” (University of South Alabama, priority 2013, dated 2018)
